Source: patent US20050159425A1, “Methods of therapy” (priority 2002, published 2005)

Columns and labels:
PDE = details: cited from earlier work
[1] = in vivo; cited from earlier work
[2] = system: IL-10 release from U937 cells; test: IL-10 release from U937 cells (ELISA); assay type: cell-based, human
Experimental: U 937 cells were grown in RPMI (PAA Laboratories) medium with 10% fetal calf serum added (PAA Laboratories). 2×10^6 cells per flask were treated with prostaglandin E2 at 10^−6 Molar or with Rolipram (4×10^−6) for 24 hours. Medium was removed at 20 hours and analysed by ELISA. A capture antibody (Pharmingen) was coated onto 96 well plates and culture medium was added each well. A standard curve was created with recombinant IL-10 protein. After incubation and washing, a biotin labelled monoclonal antibody (Pharmingen) was added and following incubation and washing, peroxidase labelled streptavidin was added. After washing a tetramethyl benzidine substrate was added and colour developed in proportion to IL-10 in the original sample/standard. Colour was read using a plate photometer (Labsystems, Multiskan). Mean concentrations (N=3) in controls with no lipopolysaccharide (LPS) were […] and in the presence of LPS (100 nM) they were 43.9 […].
The effect of PGE1, PGE2, 19 hydroxy PGE1 and 19 hydroxy PGE2 on the stimulation of IL-10 in the presence and absence of rolipram was investigated as described above in Example 2. IL-10 levels were measured using an ELISA assay (R&D Ltd, Oxford). Measurement was performed according to the manufacturer's instructions.

[3] = system: phosphodiesterase IV b mRNA; test: phosphodiesterase IV-b mRNA in U937 cells (Taqman); assay type: cell-based, human; details: four hours of incubation; for PDE activity (phosphodiesterase IV b mRNA) after application: PGE 1×10^−6, 19-hydroxy PGE2 5×10^−6, without rolipram
Experimental: Template was amplified in a Taqman 7700 machine for 40 cycles using FAM/TAMRA dyes on the probe. The Applied Biosystems kit was used to amplify and detect ribosomal (18S)RNA (using VIC/TAMRA dyes) as an internal control in the same reaction tube. After 40 cycles the Ct (related to cycle number at which signal appears) for the FAM and the 18S (VIC) were recorded and […] relative quantitation was achieved using the formula 2^−ΔΔCt where Δ refers to the difference between the FAM and VIC signal related to an standard comparator included in each run.
The mRNA for phosphodiesterase IV-b was measured as described in Example 2 above. mRNA was extracted after four hours of incubation. The concentration of the PGE was 1×10^−6 and that of the 19-hydroxy PGE2 was 5×10^−6. The following primers and Taqman probe were used for quantitation of PDE IV b mRNA.

type IV PDE = details: cited from earlier work; for IC50: type IV PDE selective inhibitor
[4] = system: monocyte/macrophages stimulated with lipopolysaccharide (LPS); details: cited from earlier work

Compound: CC(C)Cn1c(=O)n(C)c(=O)c2[nH]cnc21 [IBMX, 3-isobutyl-1-methylxanthine]
- IC50 (PDE; non-specific PDE inhibitor): 2000 to 50000 nM

Compound: CCCCC(C)(O)CC=C[C@H]1[C@H](O)CC(=O)[C@@H]1CCCCCCC(=O)OC (mixture of isomers) [Cytotec, (±) methyl 11α, 16-dihydroxy-16-methyl-9-oxoprost-13-enoate]
- hypotension [1]: does not cause hypotension

Compound: 19-hydroxy PGE2
- concentration necessary to achieve similar effects to PGE ([2]; compared with PGE): higher concentration
- stimulation of IL-10 in the presence of a PDE inhibitor [2]: increased strikingly
- PDE activity (phosphodiesterase IV b mRNA) after application [3]: increase

Compound: CCCCC[C@H](O)/C=C/[C@H]1[C@H](O)CC(=O)[C@@H]1C/C=C\CCCC(=O)O [PGE2, prostaglandin E2]
- effect on release of IL-10 in combination with PDE inhibitor rolipram ([2]; combination with rolipram): synergistic
- stimulation of IL-10 in the presence of a PDE inhibitor [2]: increased strikingly
- PDE activity (phosphodiesterase IV b mRNA) after application [3]: increase
- PDE message levels with a type IV selective PDE inhibitor ([3]; with type IV selective PDE inhibitor (rolipram)): increases PDE message levels even further

Compound: Cn1c(=O)c2c(ncn2C)n(C)c1=O [caffeine]
- activity as non-specific PDE inhibitor (PDE; compared with theophylline, IBMX and pentoxifylline): not as active as the others

Compound: COc1ccc(C2CNC(=O)NC2)cc1O[C@H]1C[C@@H]2CC[C@H]1C2 [CP 80 633]
- type IV PDE inhibition (type IV PDE): potent type IV inhibitors

Compound: Cn1c(=O)c2[nH]cnc2n(C)c1=O [theophylline]
- times less effective than rolipram (type IV PDE; non-selective inhibitor compared with rolipram): 30 times

Compound: COc1ccc(C2CNC(=O)C2)cc1OC1CCCC1 (stereo not shown) [rolipram, 4-[3-cyclopentyloxy-4-methoxyphenyl]-2-pyrrolidinone]
- IC50 (type IV PDE): 800 nM
- IL-10 levels [4]: raise
- cAMP levels [4]: raise

Compound: CCCCOc1cc(CC2CNC(=O)N2)ccc1OC (stereo not shown) [Ro-20-1724, 4-[3-butoxy-4-methoxybenzyl]-2-imidazolidinone]
- IC50 (type IV PDE): 2000 nM
